Test results: US20050020662A1, “Inhibition of PKC to treat permability failure” (Joslin Diabetes Center, Inc., a Massachusetts corporation, priority 1999, published 2005)

Tested on: PKC
Assay: PKC activity of primary human mesothelial cells
Format: cell-based
Conditions: human mesothelial cells exposed to vitamin E, low or high (150 mM) glucose, presence or absence of PMA (FIG. 2)
Experimental: The PKC activity was determined in the presence or absence or PMA, an activator of PKC. […] The mesothelial cells were exposed to low or high (150 mM) levels of glucose in the presence or absence of PMA, an activator of PKC, and the presence or absence of vitamin E, a PKC inhibitor. […] The PKC activity was determined in the presence or absence or PMA, an activator of PKC. […] These concentrations of glucose are standard for dialysis. […] It has been reported that activation of these pathways increases fibrosis. […] Therefore, inhibition of PKC can decrease fibrosis and reduce or prevent permeability failure of the peritoneal membrane.

## vitamin E
  PKC activity: decrease of PKC activity
